Measurements: ChEMBL document CHEMBL3991601, “The target landscape of clinical kinase drugs” (Science, 2017)
pKd: −log10 of the molar value. Activity calls are given as the source filed them.

What was measured:
[1] = molecular target: Serine/threonine-protein kinase MRCK gamma (Homo sapiens, UniProt Q6DT37)
[2] = molecular target: Serine/threonine-protein kinase 24 (Homo sapiens, UniProt Q9Y6E0)
[3] = molecular target: Serine/threonine-protein kinase MRCK alpha (Homo sapiens, UniProt Q5VT25)
[4] = molecular target: T1, Dual specificity mitogen-activated protein kinase kinase 5 (Homo sapiens, UniProt Q13163)
T1 sequence (Q13163 whole entry): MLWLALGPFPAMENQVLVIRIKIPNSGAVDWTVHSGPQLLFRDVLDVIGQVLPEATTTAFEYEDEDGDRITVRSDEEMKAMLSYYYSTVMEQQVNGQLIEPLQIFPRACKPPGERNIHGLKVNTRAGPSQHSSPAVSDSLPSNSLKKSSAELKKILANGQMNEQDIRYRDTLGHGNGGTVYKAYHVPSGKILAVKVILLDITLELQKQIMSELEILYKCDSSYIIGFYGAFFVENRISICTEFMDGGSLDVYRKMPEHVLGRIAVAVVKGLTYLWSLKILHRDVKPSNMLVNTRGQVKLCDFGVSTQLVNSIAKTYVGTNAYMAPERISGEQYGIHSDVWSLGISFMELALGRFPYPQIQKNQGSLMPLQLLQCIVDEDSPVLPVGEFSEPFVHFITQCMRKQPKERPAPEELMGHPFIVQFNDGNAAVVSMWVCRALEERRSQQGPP

[5] = molecular target: U5 small nuclear ribonucleoprotein 200 kDa helicase (Homo sapiens, UniProt O75643)
[6] = molecular target: Serine/threonine-protein kinase ATR (Homo sapiens, UniProt Q13535)
Serine/threonine-protein kinase ATR, sequence (Q13535 whole entry): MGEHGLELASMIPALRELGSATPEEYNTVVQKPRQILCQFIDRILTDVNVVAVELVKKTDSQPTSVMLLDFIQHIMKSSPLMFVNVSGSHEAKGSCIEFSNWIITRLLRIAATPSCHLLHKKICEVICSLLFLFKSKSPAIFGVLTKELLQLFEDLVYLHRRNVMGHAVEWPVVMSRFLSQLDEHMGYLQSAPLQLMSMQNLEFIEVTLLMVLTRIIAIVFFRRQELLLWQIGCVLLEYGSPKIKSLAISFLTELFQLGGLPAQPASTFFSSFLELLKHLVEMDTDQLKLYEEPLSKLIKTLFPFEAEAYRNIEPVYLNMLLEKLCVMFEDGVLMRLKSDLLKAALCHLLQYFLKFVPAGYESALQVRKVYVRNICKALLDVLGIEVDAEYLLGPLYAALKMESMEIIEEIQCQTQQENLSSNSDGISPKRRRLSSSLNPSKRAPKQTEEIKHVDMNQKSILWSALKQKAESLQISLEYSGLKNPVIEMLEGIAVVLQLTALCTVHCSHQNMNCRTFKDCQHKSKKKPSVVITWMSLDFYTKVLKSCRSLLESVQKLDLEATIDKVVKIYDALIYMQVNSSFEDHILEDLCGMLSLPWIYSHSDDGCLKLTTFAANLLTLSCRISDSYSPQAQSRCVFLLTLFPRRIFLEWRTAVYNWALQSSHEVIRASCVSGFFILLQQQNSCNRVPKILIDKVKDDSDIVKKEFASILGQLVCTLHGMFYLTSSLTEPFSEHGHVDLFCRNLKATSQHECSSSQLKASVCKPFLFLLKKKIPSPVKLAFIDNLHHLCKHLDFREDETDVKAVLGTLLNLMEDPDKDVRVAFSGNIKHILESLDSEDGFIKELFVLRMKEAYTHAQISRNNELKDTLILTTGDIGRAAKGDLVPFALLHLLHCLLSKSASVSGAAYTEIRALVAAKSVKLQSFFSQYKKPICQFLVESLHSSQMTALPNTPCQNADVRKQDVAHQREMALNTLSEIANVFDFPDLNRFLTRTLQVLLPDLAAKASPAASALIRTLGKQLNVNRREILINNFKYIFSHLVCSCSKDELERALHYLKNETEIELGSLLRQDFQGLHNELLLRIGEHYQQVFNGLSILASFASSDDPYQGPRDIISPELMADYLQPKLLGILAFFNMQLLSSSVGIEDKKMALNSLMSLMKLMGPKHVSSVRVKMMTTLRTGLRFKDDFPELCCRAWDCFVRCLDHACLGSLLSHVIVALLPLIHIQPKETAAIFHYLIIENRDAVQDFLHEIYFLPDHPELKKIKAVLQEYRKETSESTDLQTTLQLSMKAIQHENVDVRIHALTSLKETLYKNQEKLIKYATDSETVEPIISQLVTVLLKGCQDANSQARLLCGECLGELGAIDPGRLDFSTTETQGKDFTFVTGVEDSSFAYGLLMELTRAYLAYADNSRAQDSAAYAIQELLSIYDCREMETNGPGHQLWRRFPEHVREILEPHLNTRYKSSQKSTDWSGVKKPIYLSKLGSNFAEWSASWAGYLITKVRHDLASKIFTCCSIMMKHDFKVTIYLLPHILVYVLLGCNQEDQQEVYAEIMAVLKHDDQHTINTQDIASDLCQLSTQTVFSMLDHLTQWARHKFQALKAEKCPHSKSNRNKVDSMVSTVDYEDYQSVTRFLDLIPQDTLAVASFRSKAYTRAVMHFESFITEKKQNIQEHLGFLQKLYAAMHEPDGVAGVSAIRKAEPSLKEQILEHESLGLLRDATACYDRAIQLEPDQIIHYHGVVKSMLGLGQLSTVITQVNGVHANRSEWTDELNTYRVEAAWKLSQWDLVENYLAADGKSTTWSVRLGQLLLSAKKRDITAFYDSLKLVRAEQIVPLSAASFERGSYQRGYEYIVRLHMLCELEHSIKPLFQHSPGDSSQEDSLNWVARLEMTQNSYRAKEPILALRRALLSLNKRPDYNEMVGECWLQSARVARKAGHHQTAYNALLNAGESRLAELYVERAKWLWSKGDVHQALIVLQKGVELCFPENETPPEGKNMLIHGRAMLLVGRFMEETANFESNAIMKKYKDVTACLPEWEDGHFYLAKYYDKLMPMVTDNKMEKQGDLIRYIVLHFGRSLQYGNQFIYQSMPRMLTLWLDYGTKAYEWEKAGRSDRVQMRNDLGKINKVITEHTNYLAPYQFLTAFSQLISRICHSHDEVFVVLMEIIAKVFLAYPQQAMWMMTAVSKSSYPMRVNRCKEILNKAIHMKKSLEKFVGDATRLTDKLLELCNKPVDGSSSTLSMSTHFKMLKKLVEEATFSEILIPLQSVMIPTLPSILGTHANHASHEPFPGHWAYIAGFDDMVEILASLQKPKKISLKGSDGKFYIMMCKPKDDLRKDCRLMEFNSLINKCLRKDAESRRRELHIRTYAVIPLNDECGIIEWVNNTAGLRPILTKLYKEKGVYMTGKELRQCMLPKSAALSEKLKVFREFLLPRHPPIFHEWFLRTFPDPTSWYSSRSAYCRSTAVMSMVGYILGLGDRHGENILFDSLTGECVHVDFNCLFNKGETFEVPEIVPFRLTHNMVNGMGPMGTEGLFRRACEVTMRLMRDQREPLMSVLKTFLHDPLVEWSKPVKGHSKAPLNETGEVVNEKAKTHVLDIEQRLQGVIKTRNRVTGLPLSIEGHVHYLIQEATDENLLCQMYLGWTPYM

Focal adhesion kinase 1 = Focal adhesion kinase 1 (Homo sapiens, UniProt Q05397)
[7] = molecular target: DNA topoisomerase 2-alpha (Homo sapiens, UniProt P11388)
[8] = molecular target: Receptor-interacting serine/threonine-protein kinase 3 (Homo sapiens, UniProt Q9Y572)
[9] = molecular target: T2, Thyroid hormone receptor-associated protein 3 (Homo sapiens, UniProt Q9Y2W1)
T2 sequence (Q9Y2W1 whole entry): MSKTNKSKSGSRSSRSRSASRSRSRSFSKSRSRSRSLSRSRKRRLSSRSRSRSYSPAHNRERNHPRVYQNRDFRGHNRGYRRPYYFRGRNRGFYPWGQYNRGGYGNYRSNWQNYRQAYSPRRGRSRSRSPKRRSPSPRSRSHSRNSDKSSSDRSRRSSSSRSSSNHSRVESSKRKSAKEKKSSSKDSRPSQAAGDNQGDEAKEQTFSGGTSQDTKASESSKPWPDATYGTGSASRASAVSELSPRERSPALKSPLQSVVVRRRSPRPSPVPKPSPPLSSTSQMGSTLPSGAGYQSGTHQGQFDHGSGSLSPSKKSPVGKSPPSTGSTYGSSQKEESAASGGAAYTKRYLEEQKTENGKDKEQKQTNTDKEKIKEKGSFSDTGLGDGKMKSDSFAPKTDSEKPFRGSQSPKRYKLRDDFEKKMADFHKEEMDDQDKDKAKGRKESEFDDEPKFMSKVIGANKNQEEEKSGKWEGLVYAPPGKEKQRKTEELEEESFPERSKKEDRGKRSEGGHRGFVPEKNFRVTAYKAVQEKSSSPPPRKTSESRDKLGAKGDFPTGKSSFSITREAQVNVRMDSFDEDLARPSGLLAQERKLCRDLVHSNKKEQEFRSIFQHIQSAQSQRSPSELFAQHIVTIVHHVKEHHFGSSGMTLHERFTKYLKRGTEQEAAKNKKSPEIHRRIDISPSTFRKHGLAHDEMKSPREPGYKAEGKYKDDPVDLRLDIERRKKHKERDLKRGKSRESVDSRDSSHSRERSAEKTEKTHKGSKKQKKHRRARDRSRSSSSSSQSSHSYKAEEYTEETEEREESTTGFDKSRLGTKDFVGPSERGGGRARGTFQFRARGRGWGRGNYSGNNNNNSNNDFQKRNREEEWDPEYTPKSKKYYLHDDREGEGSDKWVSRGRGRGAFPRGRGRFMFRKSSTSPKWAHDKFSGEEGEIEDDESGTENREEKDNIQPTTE

[10] = molecular target: Cyclin-dependent kinase 17 (Homo sapiens, UniProt Q00537)
[11] = molecular target: G protein-coupled receptor kinase 6 (Homo sapiens, UniProt P43250)
G protein-coupled receptor kinase 6, sequence (P43250 whole entry): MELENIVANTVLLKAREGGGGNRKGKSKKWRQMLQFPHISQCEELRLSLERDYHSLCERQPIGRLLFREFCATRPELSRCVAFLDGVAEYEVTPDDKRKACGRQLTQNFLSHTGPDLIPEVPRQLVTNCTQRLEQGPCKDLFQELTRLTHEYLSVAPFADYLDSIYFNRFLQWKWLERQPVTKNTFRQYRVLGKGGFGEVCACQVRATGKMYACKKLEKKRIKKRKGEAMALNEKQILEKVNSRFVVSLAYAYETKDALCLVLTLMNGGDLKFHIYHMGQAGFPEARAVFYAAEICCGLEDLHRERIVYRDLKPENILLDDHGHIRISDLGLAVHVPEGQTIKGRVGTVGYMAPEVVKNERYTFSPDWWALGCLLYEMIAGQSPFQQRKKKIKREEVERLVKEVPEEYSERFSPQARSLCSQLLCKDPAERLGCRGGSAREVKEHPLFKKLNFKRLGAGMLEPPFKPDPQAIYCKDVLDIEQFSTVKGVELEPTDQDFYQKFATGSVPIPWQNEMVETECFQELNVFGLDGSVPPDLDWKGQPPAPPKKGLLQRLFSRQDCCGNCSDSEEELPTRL
Also: in the data inactive means no Kd found up to 30 µM.

Serine/threonine-protein kinase MRCK gamma, sequence (Q6DT37 whole entry): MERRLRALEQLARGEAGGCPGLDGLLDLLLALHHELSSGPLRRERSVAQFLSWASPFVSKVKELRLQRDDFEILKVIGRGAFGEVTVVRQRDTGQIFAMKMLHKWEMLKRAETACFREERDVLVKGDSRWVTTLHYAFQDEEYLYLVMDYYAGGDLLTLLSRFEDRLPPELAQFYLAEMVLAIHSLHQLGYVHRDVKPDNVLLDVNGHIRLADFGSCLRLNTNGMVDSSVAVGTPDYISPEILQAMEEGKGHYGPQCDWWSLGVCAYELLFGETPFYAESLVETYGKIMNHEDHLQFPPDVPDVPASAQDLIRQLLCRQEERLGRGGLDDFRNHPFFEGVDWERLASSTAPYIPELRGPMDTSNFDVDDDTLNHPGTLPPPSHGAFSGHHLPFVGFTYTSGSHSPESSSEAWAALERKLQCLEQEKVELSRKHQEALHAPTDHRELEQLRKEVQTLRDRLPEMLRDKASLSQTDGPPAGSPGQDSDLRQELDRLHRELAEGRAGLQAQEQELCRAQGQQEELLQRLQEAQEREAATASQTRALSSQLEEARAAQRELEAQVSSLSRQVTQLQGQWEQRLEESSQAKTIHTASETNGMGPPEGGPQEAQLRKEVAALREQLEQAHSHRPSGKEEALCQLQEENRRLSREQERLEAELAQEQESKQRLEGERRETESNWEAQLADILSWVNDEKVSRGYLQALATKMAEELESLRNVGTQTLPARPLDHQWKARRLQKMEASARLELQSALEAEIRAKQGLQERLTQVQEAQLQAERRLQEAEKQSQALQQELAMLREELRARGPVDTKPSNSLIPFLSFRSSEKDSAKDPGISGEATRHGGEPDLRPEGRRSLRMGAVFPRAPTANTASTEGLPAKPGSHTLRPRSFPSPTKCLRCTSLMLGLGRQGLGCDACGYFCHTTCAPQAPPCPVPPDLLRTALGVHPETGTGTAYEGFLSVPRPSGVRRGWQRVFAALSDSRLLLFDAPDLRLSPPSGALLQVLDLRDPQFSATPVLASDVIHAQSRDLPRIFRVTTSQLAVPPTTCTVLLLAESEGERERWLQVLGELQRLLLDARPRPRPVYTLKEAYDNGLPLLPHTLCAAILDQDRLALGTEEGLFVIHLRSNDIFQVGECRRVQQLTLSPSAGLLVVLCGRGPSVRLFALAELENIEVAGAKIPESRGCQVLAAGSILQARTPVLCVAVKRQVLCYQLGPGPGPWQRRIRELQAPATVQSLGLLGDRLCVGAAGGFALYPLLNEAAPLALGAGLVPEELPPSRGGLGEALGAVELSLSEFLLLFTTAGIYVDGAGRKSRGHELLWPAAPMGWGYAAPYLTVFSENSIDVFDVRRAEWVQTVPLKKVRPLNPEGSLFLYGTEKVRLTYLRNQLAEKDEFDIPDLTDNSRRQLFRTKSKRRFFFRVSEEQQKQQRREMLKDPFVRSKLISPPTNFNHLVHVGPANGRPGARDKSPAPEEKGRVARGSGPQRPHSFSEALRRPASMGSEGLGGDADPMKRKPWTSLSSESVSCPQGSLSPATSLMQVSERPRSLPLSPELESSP

Row | Kd [1] | Kd [2] | Kd [3] | Kd [4] | Kd [5] | Kd [6] | Kd (Focal adhesion kinase 1) | Kd [7] | Kd [8] | Kd [9] | Kd [10] | Kd [11] | pKd [7] | Structure (SMILES) | pKd [4] | pKd [2]
1 | – | > 30 µM (inactive) | > 30 µM (inactive) | 0.972 µM (active) | > 30 µM (inactive) | – | > 30 µM (inactive) | – | > 30 µM (inactive) | – | – | – | – | COc1cccc(Nc2ncnn3ccc(CN4CC[C@@H](N)[C@H](O)C4)c23)c1 [BMS-690514] | – | –
2 | – | – | > 30 µM (inactive) | 2.08 µM (active) | > 30 µM (inactive) | > 30 µM (inactive) | – | – | > 30 µM (inactive) | – | – | – | – | CCOc1ccn(-c2ccc(F)cc2)c(=O)c1C(=O)Nc1ccc(Oc2ccnc(N)c2Cl)c(F)c1 [BMS-777607] | – | –
3 | > 30 µM (inactive) | > 30 µM (inactive) | > 30 µM (inactive) | > 30 µM (inactive) | > 30 µM (inactive) | – | > 30 µM (inactive) | > 30 µM (inactive) | > 30 µM (inactive) | > 30 µM (inactive) | > 30 µM (inactive) | > 30 µM (inactive) | – | c1cc(OCCN2CCCCC2)cc(-c2n[nH]c3ccc(-c4nc[nH]n4)cc23)c1 [CC-401] | – | –
4 | > 30 µM (inactive) | – | > 30 µM (inactive) | > 30 µM (inactive) | > 30 µM (inactive) | – | > 30 µM (inactive) | > 30 µM (inactive) | > 30 µM (inactive) | > 30 µM (inactive) | > 30 µM (inactive) | – | – | COc1cc2ncnc3c2cc1OCCCCCN(C)Cc1ccc(Br)cc1N3 [JNJ-26483327] | – | –
5 | > 30 µM (inactive) | > 30 µM (inactive) | > 30 µM (inactive) | – | > 30 µM (inactive) | – | > 30 µM (inactive) | – | > 30 µM (inactive) | – | > 30 µM (inactive) | – | – | CC(C)(O)CC(=O)NCCn1ccc2ncnc(Nc3ccc(Oc4cccc(C(F)(F)F)c4)c(Cl)c3)c21 [TAK-285] | – | –
6 | > 30 µM (inactive) | > 30 µM (inactive) | > 30 µM (inactive) | > 30 µM (inactive) | > 30 µM (inactive) | – | > 30 µM (inactive) | > 30 µM (inactive) | > 30 µM (inactive) | – | – | > 30 µM (inactive) | – | Cc1cc(C(=O)Nc2cc(Oc3ccc4nc(NC(=O)C5CC5)cn4n3)ccc2C)n(C)n1 [TAK-593] | – | –
7 | > 30 µM (inactive) | > 30 µM (inactive) | > 30 µM (inactive) | – | > 30 µM (inactive) | – | > 30 µM (inactive) | > 30 µM (inactive) | > 30 µM (inactive) | > 30 µM (inactive) | > 30 µM (inactive) | > 30 µM (inactive) | – | Cn1c(=O)c(F)c(Nc2ccc(I)cc2F)c2c(=O)n(C[C@@H](O)CO)cnc21 [TAK-733] | 5.48 | –

The next lines start with the compound.

Row | Structure (SMILES) | Kd [1] | Kd [2] | Kd [3] | Kd [4] | Kd [5] | Kd [6] | Kd (Focal adhesion kinase 1) | Kd [7] | Kd [8] | Kd [9] | Kd [10] | Kd [11] | pKd [7] | pKd [4] | pKd [2]
8 | O=c1[nH]c([C@@H]2CCCN2)nc2c1oc1ccc(Cl)cc12 | > 30 µM (inactive) | > 30 µM (inactive) | > 30 µM (inactive) | > 30 µM (inactive) | > 30 µM (inactive) | > 30 µM (inactive) | > 30 µM (inactive) | > 30 µM (inactive) | > 30 µM (inactive) | – | – | – | – | – | –
9 | Cc1c(NC(=O)OC[C@@H]2COCCN2)cn2ncnc(Nc3ccc4c(cnn4Cc4cccc(F)c4)c3)c12 [AC-480] | > 30 µM (inactive) | > 30 µM (inactive) | > 30 µM (inactive) | – | > 30 µM (inactive) | – | > 30 µM (inactive) | – | > 30 µM (inactive) | > 30 µM (inactive) | – | – | – | 5.23 | –
10 | CN(C)C/C=C/C(=O)Nc1cc2c(Nc3ccc(F)c(Cl)c3)ncnc2cc1O[C@H]1CCOC1 [AFATINIB] | – | – | – | – | > 30 µM (inactive) | – | – | > 30 µM (inactive) | > 30 µM (inactive) | > 30 µM (inactive) | – | – | – | – | –
11 | CCN(CCCOc1ccc2c(Nc3cc(CC(=O)Nc4cccc(F)c4)n[nH]3)ncnc2c1)CCOP(=O)(O)O [BARASERTIB] | > 30 µM (inactive) | > 30 µM (inactive) | > 30 µM (inactive) | 0.082 µM (active) | > 30 µM (inactive) | > 30 µM (inactive) | – | > 30 µM (inactive) | > 30 µM (inactive) | > 30 µM (inactive) | > 30 µM (inactive) | – | – | – | –
12 | CC[C@@](C)(Nc1ccnc(-c2c[nH]c3ncccc23)n1)C(=O)NCC(F)(F)F [DECERNOTINIB] | – | > 30 µM (inactive) | 0.561 µM (active) | > 30 µM (inactive) | > 30 µM (inactive) | – | > 30 µM (inactive) | – | > 30 µM (inactive) | – | 0.139 µM (active) | – | 7.19 | – | –
13 | CCc1nc(C(N)=O)c(Nc2ccc(N3CCC(N4CCN(C)CC4)CC3)c(OC)c2)nc1NC1CCOCC1 [GILTERITINIB] | – | – | > 30 µM (inactive) | 2.04 µM (active) | 1.38 µM (active) | – | > 30 µM (inactive) | > 30 µM (inactive) | 1.3 µM (active) | > 30 µM (inactive) | > 30 µM (inactive) | – | – | – | 6.64
14 | C[C@]1(O)C[C@@H](c2nc(-c3ccc4ccc(-c5ccccc5)nc4c3)c3c(N)nccn32)C1 [LINSITINIB] | > 30 µM (inactive) | – | – | 6.56 µM (active) | > 30 µM (inactive) | – | – | – | 6.05 µM (active) | > 30 µM (inactive) | > 30 µM (inactive) | > 30 µM (inactive) | – | – | –
15 | O=C(NOC[C@H](O)CO)c1ccc(F)c(F)c1Nc1ccc(I)cc1F [MIRDAMETINIB] | > 30 µM (inactive) | > 30 µM (inactive) | > 30 µM (inactive) | 0.808 µM (active) | > 30 µM (inactive) | – | > 30 µM (inactive) | > 30 µM (inactive) | > 30 µM (inactive) | > 30 µM (inactive) | > 30 µM (inactive) | > 30 µM (inactive) | – | – | –
16 | FC(F)(F)c1ccc(CNc2ccc(Cc3c[nH]c4ncc(Cl)cc34)cn2)cn1 [PEXIDARTINIB] | > 30 µM (inactive) | > 30 µM (inactive) | > 30 µM (inactive) | > 30 µM (inactive) | > 30 µM (inactive) | – | > 30 µM (inactive) | > 30 µM (inactive) | > 30 µM (inactive) | – | > 30 µM (inactive) | > 30 µM (inactive) | – | – | –
17 | C=CC(=O)Nc1cccc(Nc2nc(Nc3ccc(N4CCN(C(C)=O)CC4)cc3OC)ncc2C(F)(F)F)c1 [ROCILETINIB] | > 30 µM (inactive) | – | > 30 µM (inactive) | > 30 µM (inactive) | > 30 µM (inactive) | > 30 µM (inactive) | 0.433 µM (active) | > 30 µM (inactive) | > 30 µM (inactive) | – | > 30 µM (inactive) | – | – | – | –
18 | C=CCN(/C=C1/C(=O)O[C@H](COC)[C@@]2(C)C1=C(O)C(=O)C1=C2[C@H](OC(C)=O)C[C@]2(C)C(=O)CC[C@@H]12)CC=C [SONOLISIB] | – | > 30 µM (inactive) | > 30 µM (inactive) | > 30 µM (inactive) | > 30 µM (inactive) | – | > 30 µM (inactive) | – | > 30 µM (inactive) | > 30 µM (inactive) | > 30 µM (inactive) | – | – | – | –
19 | COc1cc2c(N3CCN(C(=O)Nc4ccc(OC(C)C)cc4)CC3)ncnc2cc1OCCCN1CCCCC1 [TANDUTINIB] | – | – | – | – | – | – | – | – | > 30 µM (inactive) | > 30 µM (inactive) | – | > 30 µM (inactive) | – | – | –
20 | Cc1cc(-c2cc(OC(=O)c3ccccc3)ccc2Cl)cc2nnc(Nc3ccc(OCCN4CCCC4)cc3)nc12 [TG100-801] | > 30 µM (inactive) | – | > 30 µM (inactive) | > 30 µM (inactive) | – | > 30 µM (inactive) | > 30 µM (inactive) | – | > 30 µM (inactive) | > 30 µM (inactive) | > 30 µM (inactive) | – | – | – | –
